This is an account of results in patent US4743616A, “Novel biologically active compound having anti-prolyl endopeptidase activity” (Suntory Limited, priority 1984, dated 1988).

The structures appear in SMILES notation.

The subject of data set [1] is experimental amnesia caused in rats by scopolamine. Description: Preventive effect against experimental amnesia caused in rats by scopolamine (intraperitoneal administration). It counts as in vivo, Wister male rats. The conditions noted are these: for No. of amnesic rats/No. of rats tested / Percentage amnesia: scopolamine 3 mg/kg i.p., assessed 24 and 48 hours after scopolamine. The protocol: (§1) Several of the anti-prolyl endopeptidase compounds of the present invention were checked for their ability to prevent the inhibition of long-term memory fixation by scopolamine. Solutions of physiological saline that contained selected compounds of the present inventions in varying amounts (20 mg, 2 mg, 0.2 mg and 0.02 mg/kg) were administered intraperitoneally once a day to Wister male rats (100-120 g). One hour after the administration, electric shocks were applied to the rats so that they would acquire passive avoidance learning. Immediately thereafter, scopolamine was administered intraperitoneally to each rat in an amount of 3 mg per kg of body weight.
(§2) The result of the test was assessed both 24 hours and 48 hours after the administration of scopolamine. The number of amnesic rats and that of sound rats were counted for each of the control group (rats which were not administered the test compounds but administered intraperitoneally only scopolamine and physiological saline) and the treated group (rats which were administered both the test compound and scopolamine).

A short description of data set [2]: Acute toxicity test in mice. The note with it: mouse, in vivo, ip; single i.p. administration in DMSO/physiological saline, five mice per group, observed at 24 and 48 hours; read-out: Average dose (mg/kg) at which the group remained sound and showed no sign of intoxication. How it is done:
The compounds of the present invention were checked for their acute toxicity in CDF-1 strain male mice (body weight: 27.2-30.1 g) purchased from Awazu Laboratory Animals Co., Ltd.
Test samples were prepared by dissolving the respective compounds in DMSO, and mixing with an equal amount of physiological saline. A portion (0.1 ml) of the so conditioned test sample was administered intraperitoneally to each of the mice used. Each of the tested groups consisted of five mice. At 24 and 48 hours of the administration, the mice were observed.

For data set [3], the target named is prolyl endopeptidase. Description: Measurement of anti-prolyl endopeptidase activity. The class given is biochemical. The conditions noted are these: substrate Z-glycyl-proline-β-naphthylamide, phosphate buffer pH 7.0, absorbance at 410 nm. The protocol: The method of Yoshimoto and Tsuru (T. Yoshimoto and D. Tsuru, Agr. Biol. Chem. 42, 2417, 1978) was used to measure the anti-prolyl endopeptidase activities of several compounds of the present invention. A mixture of 0.0025M Z-glycyl-proline-β-naphthylamide (0.25 ml), 0.1M phosphate buffer (pH, 7.0; 0.99 ml) and a solution of a particular anti-prolyl endopeptidase compound (0.01 ml) was incubated in a test tube at 37° C. for 3 minutes. Thereafter, 0.1 ml of a solution of prolyl endopeptidase (0.2 U/ml) was added and the mixture was heated at 35° C. for 10 minutes. After the reaction, 2.0 ml of Triton X-100 in 1M acetate buffer (pH, 4.0 ) was added to the reaction mixture until the final concentration of the surfactant was 10%. The mixture was left at room temperature for 15 minutes and the absorance (a) at 410 nm was measured.
A sample for blind test was prepared by using the buffer instead of the anti-prolyl endopeptidase compound and its absorbance (b) was also measured. The percent inhibition of prolyl endopeptidase was calculated by the formula: ((b-a)/b)×100, and the amount of a specific compound to achieve 50% inhibition (IC50) was determined.

Data set [4] deals with experimental amnesia caused in rats by scopolamine. Description: Preventive effect against experimental amnesia caused in rats by scopolamine (oral administration). The class given is in vivo. The note with it: for No. of amnesic rats/No. of rats tested / Percentage amnesia: scopolamine 3 mg/kg i.p. How it is done:
as §1, §2
Varying amounts (1, 5, 25 and 100 mg/kg) of the compound were administered orally to each of the rats and tested for its anti-amnesic effects by the same procedures as used in Example 9.

On to `O=CC1CCCN1C(=O)Cc1ccccc1` (stereo not shown) [Compound No. 1], for which the “No. of amnesic rats/No. of rats tested” value in data set [1] (0.2 mg/kg i.p.) was 7/10; in data set [1] (2 mg/kg i.p.), 3/10. The Percentage amnesia in data set [1] (0.2 mg/kg i.p.) is 70%; in data set [1] (2 mg/kg i.p.), 30%. Besides, the NOAEL at 48 h in data set [2] worked out at 535 mg/kg. Further, the “IC50 (μg/test tube)” value in data set [3] is 0.8 μg/test tube.

For the compound `COC(=O)[C@@H]1CCCN1C(=O)Cc1ccccc1` [Compound No. 2, N-phenylacetyl-proline methyl ester], in data set [1] (20 mg/kg i.p.), the “No. of amnesic rats/No. of rats tested” value is 7/10 and the Percentage amnesia came to 70%. Besides, in data set [2], the NOAEL at 48 h worked out at 535 mg/kg. The “IC50 (μg/test tube)” value in data set [3] was determined as 200 μg/test tube.

For the compound `O=CC1CCCN1C(=O)CCc1ccccc1` (stereo not shown) [Compound No. 3, N-(3-phenylpropionyl)-prolinal], the “No. of amnesic rats/No. of rats tested” value in data set [1] (0.02 mg/kg i.p.) was 7/15; in data set [1] (0.2 mg/kg i.p.) it was 4/15; in data set [1] (2 mg/kg i.p.), 4/15. Moreover, the values for the Percentage amnesia in data set [1] (0.02 mg/kg i.p.), in data set [1] (0.2 mg/kg i.p.) and in data set [1] (2 mg/kg i.p.) were 47%, 27% and 27%, respectively. The NOAEL at 48 h in data set [2] was determined as 543 mg/kg. Further, in data set [3], the “IC50 (μg/test tube)” value was 0.018 μg/test tube.

In the case of `COC(=O)[C@@H]1CCCN1C(=O)CCc1ccccc1` [Compound No. 4, N-(3-phenylpropionyl)-proline methyl ester], in data set [1] (2 mg/kg i.p.), the “No. of amnesic rats/No. of rats tested” value is listed as 8/10 and the Percentage amnesia stood at 80%. In data set [1] (20 mg/kg i.p.), the “No. of amnesic rats/No. of rats tested” value was 4/10 and the Percentage amnesia is recorded as 40%. Also, the NOAEL at 48 h in data set [2] turned out to be 542 mg/kg. The “IC50 (μg/test tube)” value in data set [3] amounted to 60 μg/test tube.

`O=CC1CCCN1C(=O)CCCc1ccccc1` (stereo not shown) [Compound No. 5]: the “No. of amnesic rats/No. of rats tested” value in data set [1] (0.02 mg/kg i.p.) is 4/15; in data set [1] (0.2 mg/kg i.p.) it was 2/15; in data set [1] (2 mg/kg i.p.), 3/15; in data set [4] (1 mg/kg p.o.) it was 4/10; in data set [4] (5 mg/kg p.o.) it was 1/10; in data set [4] (25 mg/kg p.o.), 3/10. Further, in data set [4] (100 mg/kg p.o.), the “No. of amnesic rats/No. of rats tested” value is 8/10. The Percentage amnesia in data set [1] (0.02 mg/kg i.p.) stood at 27%; in data set [1] (0.2 mg/kg i.p.), 13%; in data set [1] (2 mg/kg i.p.) it was 20%; in data set [4] (1 mg/kg p.o.) it was 40%; in data set [4] (5 mg/kg p.o.), 10%; in data set [4] (25 mg/kg p.o.), 30%. Further, the Percentage amnesia in data set [4] (100 mg/kg p.o.) amounted to 80%. Further, in data set [1] (i.p. administration, Example 9), the “effect in preventing amnesia (in words)” value was “particularly effective in preventing amnesia”. In data set [2], the NOAEL at 48 h was 534 mg/kg. The “IC50 (μg/test tube)” value in data set [3] was found to be 0.006 μg/test tube. The “oral amount giving the strongest anti-amnesic action” value in data set [4] (of 1, 5, 25 and 100 mg/kg administered orally to rats) came to 5 mg/kg.

For `COC(=O)C1CCCN1C(=O)CCCc1ccccc1` (stereo not shown) [Compound No. 6, N-(4-phenyl-n-butyryl)-proline methyl ester], in data set [1] (0.2 mg/kg i.p.), the “No. of amnesic rats/No. of rats tested” value is on record as 5/10 and the Percentage amnesia stood at 50%. Moreover, in data set [1] (2 mg/kg i.p.), the “No. of amnesic rats/No. of rats tested” value is listed as 3/10 and the Percentage amnesia came to 30%. In data set [2], the NOAEL at 48 h stood at 536 mg/kg. In data set [3], the “IC50 (μg/test tube)” value is recorded as 25 μg/test tube.

Turning to `O=CC1CCCN1C(=O)CCCCCc1ccccc1` (stereo not shown) [Sample prepared in Example 7, N-(6-phenyl-n-caproyl)-prolinal], in data set [3], the “IC50 (μg/test tube)” value was 0.35 μg/test tube.
